Measured values taken from the NIST ThermoML archive (doi:10.1016/j.jct.2004.11.005).
Numbers after ± are expanded uncertainties.

Experiment: activity coefficient (dimensionless); of the first substance listed, at infinite dilution; xn = mol fraction of the nth substance listed
Details: Liquid, x1 = 0

Structure (SMILES) | activity coefficient (269.99 K) | activity coefficient (290 K) | activity coefficient (310 K) | activity coefficient (330 K) | activity coefficient (270.02 K) | activity coefficient (280 K) | activity coefficient (300 K) | activity coefficient (310.01 K) | activity coefficient (320 K) | other results
C/C=C/C [(E)-2-butene] + CCCC(C)O | 2.91 ± 0.09 | 2.81 ± 0.08 | 2.65 ± 0.08 | 2.49 ± 0.07 | – | – | – | – | – | activity coefficient (249.94 K): 2.9 ± 0.09
C=CC=C [1,3-butadiene] + CCCCCO | – | 2.5 ± 0.08 | 2.46 ± 0.07 | 2.33 ± 0.07 | – | – | – | – | – | activity coefficient (249.97 K): 2.5 ± 0.08; activity coefficient (270.01 K): 2.51 ± 0.08
CC(C)C [2-methylpropane] + CCCC(C)O | – | 3.49 ± 0.1 | 3.3 ± 0.1 | 3.1 ± 0.09 | – | – | – | – | – | activity coefficient (250.01 K): 3.66 ± 0.11; activity coefficient (269.96 K): 3.61 ± 0.11
C=CC=C [1,3-butadiene] + CCCC(C)O | – | 2.68 ± 0.08 | 2.47 ± 0.07 | 2.27 ± 0.07 | – | – | – | – | – | activity coefficient (249.94 K): 3.01 ± 0.09; activity coefficient (269.98 K): 2.89 ± 0.09
CCCC [butane] + CCCCCO | – | 3.31 ± 0.1 | 3.27 ± 0.1 | 3.19 ± 0.1 | – | – | – | – | – | activity coefficient (249.97 K): 3.43 ± 0.1; activity coefficient (270.01 K): 3.33 ± 0.1
CCCC [butane] + CCC(O)CC | – | 3.26 ± 0.1 | – | – | 3.4 ± 0.1 | 3.36 ± 0.1 | 3.15 ± 0.09 | 3.04 ± 0.09 | 2.92 ± 0.09 | activity coefficient (259.98 K): 3.48 ± 0.1; activity coefficient (330.01 K): 2.79 ± 0.08
C=C(C)C [2-methylpropene] + CCCCCO | – | 2.82 ± 0.08 | 2.76 ± 0.08 | 2.63 ± 0.08 | – | – | – | – | – | activity coefficient (249.97 K): 2.86 ± 0.09; activity coefficient (270.01 K): 2.84 ± 0.09
CC(C)C [2-methylpropane] + CCC(O)CC | – | 3.45 ± 0.1 | – | – | 3.62 ± 0.11 | 3.53 ± 0.11 | 3.35 ± 0.1 | 3.22 ± 0.1 | 3.09 ± 0.09 | activity coefficient (259.96 K): 3.66 ± 0.11; activity coefficient (330.01 K): 2.98 ± 0.09
C=C(C)C [2-methylpropene] + CCC(O)CC | – | 2.93 ± 0.09 | – | – | 3.15 ± 0.09 | 3.04 ± 0.09 | 2.82 ± 0.08 | 2.69 ± 0.08 | 2.56 ± 0.08 | activity coefficient (259.96 K): 3.25 ± 0.1; activity coefficient (330.01 K): 2.43 ± 0.07
C=CC=C [1,3-butadiene] + CCC(O)CC | – | 2.75 ± 0.08 | – | – | 3.03 ± 0.09 | 2.92 ± 0.09 | 2.63 ± 0.08 | – | – | activity coefficient (259.98 K): 3.18 ± 0.1
C/C=C/C [(E)-2-butene] + CCC(O)CC | – | 2.88 ± 0.09 | – | – | 3.06 ± 0.09 | 2.96 ± 0.09 | 2.77 ± 0.08 | 2.67 ± 0.08 | 2.54 ± 0.08 | activity coefficient (259.96 K): 3.12 ± 0.09; activity coefficient (330.01 K): 2.5 ± 0.08
C/C=C/C [(E)-2-butene] + CCCCCO | 2.8 ± 0.08 | 2.76 ± 0.08 | 2.76 ± 0.08 | 2.69 ± 0.08 | – | – | – | – | – | activity coefficient (249.96 K): 2.8 ± 0.08
C=C(C)C [2-methylpropene] + CCCC(C)O | – | 2.82 ± 0.08 | 2.63 ± 0.08 | 2.45 ± 0.07 | – | – | – | – | – | activity coefficient (249.94 K): 3.1 ± 0.09; activity coefficient (269.98 K): 2.99 ± 0.09
CC(C)C [2-methylpropane] + CCCCCO | – | 3.56 ± 0.11 | 3.51 ± 0.11 | 3.4 ± 0.1 | – | – | – | – | – | activity coefficient (249.97 K): 3.65 ± 0.11; activity coefficient (270.01 K): 3.59 ± 0.11

Now from value to compound, other results behind:

activity coefficient (269.99 K) | activity coefficient (290 K) | activity coefficient (310 K) | activity coefficient (330 K) | activity coefficient (270.02 K) | activity coefficient (280 K) | activity coefficient (300 K) | activity coefficient (310.01 K) | activity coefficient (320 K) | Structure (SMILES) | other results
3.07 ± 0.09 | 3.08 ± 0.09 | 3.05 ± 0.09 | 3 ± 0.09 | – | – | – | – | – | CCC [propane] + CCCCCO | activity coefficient (249.96 K): 3.08 ± 0.09
– | 2.74 ± 0.08 | – | – | 2.87 ± 0.09 | 2.82 ± 0.08 | 2.63 ± 0.08 | 2.53 ± 0.08 | 2.42 ± 0.07 | C=CC [propene] + CCC(O)CC | activity coefficient (259.94 K): 2.97 ± 0.09; activity coefficient (330.01 K): 2.32 ± 0.07
3.03 ± 0.09 | 2.86 ± 0.09 | 2.69 ± 0.08 | 2.5 ± 0.08 | – | – | – | – | – | C=CCC [1-butene] + CCCC(C)O | activity coefficient (249.94 K): 3.04 ± 0.09
– | 2.96 ± 0.09 | – | 2.49 ± 0.07 | 3.16 ± 0.09 | 3.05 ± 0.09 | 2.86 ± 0.09 | 2.72 ± 0.08 | 2.61 ± 0.08 | C=CCC [1-butene] + CCC(O)CC | activity coefficient (259.96 K): 3.27 ± 0.1
2.59 ± 0.08 | 2.6 ± 0.08 | 2.59 ± 0.08 | 2.51 ± 0.08 | – | – | – | – | – | C=CC [propene] + CCCCCO | activity coefficient (249.96 K): 2.59 ± 0.08
2.77 ± 0.08 | 2.66 ± 0.08 | 2.53 ± 0.08 | 2.37 ± 0.07 | – | – | – | – | – | C=CC [propene] + CCCC(C)O | activity coefficient (249.93 K): 2.79 ± 0.08
– | 3.09 ± 0.09 | – | 2.72 ± 0.08 | 3.21 ± 0.1 | 3.14 ± 0.09 | 3.01 ± 0.09 | 2.9 ± 0.09 | 2.81 ± 0.08 | CCC [propane] + CCC(O)CC | activity coefficient (259.96 K): 3.27 ± 0.1
2.87 ± 0.09 | 2.82 ± 0.08 | 2.78 ± 0.08 | 2.7 ± 0.08 | – | – | – | – | – | C=CCC [1-butene] + CCCCCO | activity coefficient (249.96 K): 2.88 ± 0.09
– | 3.24 ± 0.1 | 3.11 ± 0.09 | 2.94 ± 0.09 | – | – | – | – | – | CCCC [butane] + CCCC(C)O | activity coefficient (249.93 K): 3.4 ± 0.1; activity coefficient (269.96 K): 3.38 ± 0.1
